Values joined by “and” are separate entries in the source; they are usually repeats but may differ in a detail not shown here. Identical values can stand only once.

Assay in all cases: Synergistic Growth Inhibition Assay (MIC, FIC index; 96-well microtiter plate, resazurin dye)
Common to all, as to assay type: cell-based
Background: Alamar Blue is a resazurin reagent that responds to reducing activity.

In one assay the test system is Botrytis cinerea. The following applies: for MIC (A): Compound A alone. The protocol:
(§1) In some embodiments, the synergistic action between the pesticidal active ingredient, and the at least one C4-C10 (or alternatively C11 or C12) saturated or unsaturated aliphatic acid components of the pesticidal compositions according to embodiments of the present disclosure was tested using a Synergistic Growth Inhibition Assay, which is derived from and related to a checkerboard assay as is known in the art for testing of combinations of antimicrobial agents. In the Synergistic Growth Inhibition Assay used in accordance with some embodiments of the present disclosure, multiple dilutions of combinations of pesticidal active ingredient and at least one C4-C10 saturated or unsaturated aliphatic acid agents are tested in individual cells for inhibitory activity against a target pest or pathogenic organism. In one such embodiment, the combinations of pesticidal active ingredient and C4-C10 (or alternatively C11 or C12) saturated or unsaturated aliphatic acid agents may preferably be tested in decreasing concentrations. In a further such embodiment, the combinations of pesticidal active ingredient and C4-C10 (or alternatively C11 or C12) saturated or unsaturated aliphatic acid agents may be tested in increasing concentrations. These multiple combinations of the pesticidal active ingredient and at least one C4-C10 (or alternatively C11 or C12) saturated or unsaturated aliphatic acid agents may be prepared in 96-well microtiter plates. In one such embodiment, the Synergistic Growth Inhibition Assay then comprises rows which each contain progressively decreasing concentrations of the pesticidal active ingredient and one or more C4-C10 (or alternatively C11 or C12) saturated or unsaturated aliphatic acid agents to test for the MIC of the agents in combination at which growth of the target pest or pathogen is inhibited. Thus, each well of the microtiter plate is a unique combination of the two agents, at which inhibitory efficacy of the combination against the target pest or pathogen can be determined.
(§2) In one embodiment according to the present disclosure, for each row of microtiter cells in the Synergistic Growth Inhibition Assay, the FIC index is calculated from the lowest concentration of the pesticidal active ingredient and one or more C4-C10 saturated or unsaturated aliphatic acid agents necessary to inhibit growth of a target pest or pathogen. The FIC of each component is derived by dividing the concentration of the agent present in that well of the microtiter plate by the minimal inhibitory concentration (MIC) needed of that agent alone to inhibit growth of the target pest or pathogen. The FIC index is then the sum of these values for both agents in that well of the microtiter plate. The FIC index is calculated for each row as follows:
(§3) FICindex=MICa/MICA+MICb/MICB
(§4) Fractional inhibitory concentration indices may then used as measure of synergy. […] When the FIC index is equal to 1, the combination is additive.
(§5) Then, serial dilutions of these initial compositions in successive wells in the row of the microtiter plate were used to assay the pesticidal composition under the same conditions to determine the concentration of the composition combining the two agents corresponding to the microtiter well in which growth inhibition of the target pest or organism ceases.
Similarly to as described above, Resazurin was used as an indicator of growth or inhibition of growth of Botrytis cinerea in the exemplary Synergistic Growth Inhibition Assay. In addition to the color change of the resazurin, an optical or visual examination of the microtiter well may also be made to additionally determine the presence of growth or inhibition of growth of the Botrytis cinerea.

Another assay deals with Sclerotinia sclerotiorum. Conditions: for MIC (A): Compound A alone. The protocol: as §1, §2, §3, §4, §5
Similarly to as described above, Resazurin was used as an indicator of growth or inhibition of growth of Sclerotinia sclerotiorum in the exemplary Synergistic Growth Inhibition Assay. […]

The next assay deals with Alternaria solani. Conditions: 7 days incubation; for MIC (A): Compound A alone. The protocol:
as §1, with “In one such embodiment, the Synergistic Growth Inhibition Assay then comprises rows which each contain progressively decreasing concentrations of the pesticidal active ingredient and one or more C4-C10 (or alternatively C11 or C12) saturated or unsaturated aliphatic acid agents to test for the MIC of the agents in combination at which growth of the target pest or pathogen is inhibited.” left out
In one embodiment according to the present disclosure, for each row of microtiter cells in the Synergistic Growth Inhibition Assay, the FIC index is calculated from the lowest concentration of the pesticidal active ingredient and one or more C4-C10 saturated or unsaturated aliphatic acid agents necessary to inhibit growth of a target pest or pathogen. […] The FIC index is calculated for each row as follows: […]

The subject of a further assay is Fusarium oxysporum. Conditions: for MIC (A): Compound A alone. As to the method: as §1, §2, §3, §4
Then, serial dilutions of these initial compositions in successive wells in the row of the microtiter plate were used to assay the pesticidal composition under the same conditions to determine the concentration of the composition combining the two agents corresponding to the microtiter well in which growth inhibition of the target pest or organism ceases. […]

[1] abbreviates: Compound B (aliphatic acid) alone, Botrytis cinerea, 48 hours incubation.
Setting [2] is: Sclerotinia sclerotiorum, 7 days incubation.
The mark [3] stands for this setting: Botrytis cinerea, 48 hours incubation.
[4] abbreviates: Fusarium oxysporum, incubation period of 48 hours.
[5] abbreviates: Compound B alone, 48 hours incubation.

Consider `CCCC(O)CC(=O)O` (stereo not drawn) [3-Hydroxyhexanoic acid, 3-hydroxyhexanoic acid], for which, in the assay with Botrytis cinerea (setting [1]), the “MIC (B)” value turned out to be 2500 µg/mL.
For the compound `CO/C=C(/C(=O)OC)c1ccccc1COc1cccc(C(F)(F)F)n1` [Picoxystrobin], the figures for the “MIC (A)” value in the assay with Sclerotinia sclerotiorum (setting [2]), in the assay on Botrytis cinerea (setting [3]) and with Alternaria solani were 500 µg/mL, 250 µg/mL and 500 µg/mL, respectively.
On to `N#Cc1c[nH]cc1-c1cccc2c1OC(F)(F)O2` [Fludioxonil, fludioxonil], for which the “MIC (A)” value with Fusarium oxysporum (24 hour incubation) amounted to 0.24063 µg/mL.
Regarding `CO/C=C(/C(=O)OC)c1ccccc1Oc1cc(Oc2ccccc2C#N)ncn1` [Azoxystrobin, azoxystrobin, reference compound], the “MIC (A)” value with Fusarium oxysporum (Fusarium oxysporum, 48 hours incubation) was found to be 150 µg/mL; in the assay with Fusarium oxysporum (setting [4]), 150 µg/mL; in the assay with Sclerotinia sclerotiorum (7 days incubation), 75 µg/mL; in the assay with Sclerotinia sclerotiorum (setting [2]), 150 µg/mL; in the assay on Sclerotinia sclerotiorum (Sclerotinia sclerotiorum, incubation period of 7 days), 150 µg/mL; in the assay with Botrytis cinerea (Botrytis cinerea, incubation period of 2 days) it was 150 µg/mL. For the same compound, the “MIC (A)” value in the assay with Botrytis cinerea (Botrytis cinerea, incubation period of 48 hours) was 75 µg/mL and 150 µg/mL.
As for `CC(O)CC(=O)O` (stereo not drawn) [3-Hydroxybutyric acid, 3-hydroxybutyric acid], the “MIC (B)” value in the assay with Fusarium oxysporum (setting [5]) and in the assay on Botrytis cinerea (setting [1]) was 10000 µg/mL in each case.
In the case of `CCC(O)C(=O)O` (stereo not drawn) [2-Hydroxybutyric acid], the “MIC (B)” value in the assay with Alternaria solani (Compound B (aliphatic acid) alone) was determined as 2500 µg/mL.
As to `O=C(O)CCCCCCCO` [8-Hydroxyoctanoic acid], the “MIC (B)” value in the assay with Botrytis cinerea (setting [1]) was 2500 µg/mL.
With `Cc1cc(C(F)(F)F)nn1CC(=O)N1CCC(c2nc(C3=NOC(c4c(F)cccc4F)C3)cs2)CC1` (stereo not drawn) [Oxathiapiprolin], the “MIC (A)” value in the assay on Botrytis cinerea (setting [3]) was determined as 500 µg/mL.
With `CCCCCCCC(O)CC(=O)O` (stereo not drawn) [3-Hydroxydecanoic acid, 3-hydroxydecanoic acid], in the assay with Botrytis cinerea (setting [1]), the “MIC (B)” value amounted to 125 µg/mL.
As to `O=C(O)CCCCCCCCCCCO` [12-Hydroxydodecanoic acid], in the assay on Botrytis cinerea (setting [1]), the “MIC (B)” value is 100 µg/mL and 50 µg/mL.
Consider `CCCCCCCC/C=C\CCCCCCCC(=O)O` [(9Z)-octadecenoic acid], for which the “MIC (B)” value in the assay with Sclerotinia sclerotiorum (Compound B alone, Sclerotinia sclerotiorum, 7 days incubation) worked out at 5000 µg/mL; with Botrytis cinerea (Compound B alone, Botrytis cinerea, incubation period of 48 hours), 5000 µg/mL.
`CC(C)(C)C(O)(CCc1ccc(Cl)cc1)Cn1cncn1` (stereo not drawn) [Tebuconazole]: the “MIC (A)” value in the assay on Fusarium oxysporum (setting [4]) came out at 225 µg/mL.
With Mancozeb, the “MIC (A)” value in the assay with Alternaria solani is 500 µg/mL.
Consider `CCCCCC(=O)O` [Hexanoic acid], for which, in the assay with Botrytis cinerea (setting [5]), the “MIC (B)” value is 156.2 µg/mL.

The record behind these values is patent US20230000081A1, “SYNERGISTIC PESTICIDAL COMPOSITIONS FOR DELIVERY OF PESTICIDAL ACTIVE INGREDIENTS AND METHODS THEREFOR” (0903608 B.C. Ltd., priority 2018, published 2023).
